Assay results as given in ChEMBL document CHEMBL4665705 (J Med Chem, 2020).
Values after ≈ are worked out from the molar mass of the structure shown.

Key:
[1] = target: Bromodomain-containing protein 4 (Homo sapiens, UniProt O60885, Y97A)
[2] = target: Bromodomain-containing protein 4 (Homo sapiens, UniProt O60885, Y390A)
[3] = buffer, pH 7.4
physchem = details: phosphate buffered saline, pH 7.4
in vitro = details: PAMPA, pH 7.4
[4] = Genotoxicity in Salmonella typhimurium TA1535 in absence of S9 fraction by Ames test; assay type: toxicity; details: salmonella enterica subsp. enterica serovar typhimurium
[5] = Genotoxicity in Salmonella typhimurium TA1537 in absence of S9 fraction by Ames test; assay type: toxicity; details: salmonella enterica subsp. enterica serovar typhimurium
[6] = Genotoxicity in Salmonella typhimurium TA98 in absence of S9 fraction by Ames test; assay type: toxicity; details: salmonella enterica subsp. enterica serovar typhimurium
[7] = Genotoxicity in Salmonella typhimurium TA100 in absence of S9 fraction by Ames test; assay type: toxicity; details: salmonella enterica subsp. enterica serovar typhimurium
[8] = Genotoxicity in Escherichia coli WP2uvrA in absence of S9 fraction by Ames test; assay type: toxicity
[9] = Genotoxicity in Salmonella typhimurium TA1535 in presence of S9 fraction by Ames test; assay type: toxicity, subcellular; details: salmonella enterica subsp. enterica serovar typhimurium
[10] = Genotoxicity in Salmonella typhimurium TA1537 in presence of S9 fraction by Ames test; assay type: toxicity, subcellular; details: salmonella enterica subsp. enterica serovar typhimurium
[11] = Genotoxicity in Salmonella typhimurium TA98 in presence of S9 fraction by Ames test; assay type: toxicity, subcellular; details: salmonella enterica subsp. enterica serovar typhimurium
[12] = Genotoxicity in Salmonella typhimurium TA100 in presence of S9 fraction by Ames test; assay type: toxicity, subcellular; details: salmonella enterica subsp. enterica serovar typhimurium
[13] = Genotoxicity in Escherichia coli WP2uvrA in presence of S9 fraction by Ames test; assay type: toxicity, subcellular
[14] = Drug metabolism in human liver S9 fraction assessed as deacetylation to aniline at 10 uM incubated for 120 mins by FTMS analysis; assay type: ADME, subcellular; details: s9, 2 h
[15] = Drug metabolism in rat liver S9 fraction assessed as deacetylation to aniline at 10 uM incubated for 120 mins by FTMS analysis; assay type: ADME, subcellular; details: s9, 2 h

Structure (SMILES) | IC50 [1] | IC50 [2] | CHI [3] | solubility kinetic (physchem) | Papp (in vitro) | further results
CC(=O)Nc1ccc(C(=O)NCCCN)cc1OCC1CCOCC1 | > 50.1 µM | > 50.1 µM | 0.4 | 144 µg/mL (≈ 412 µM) | < 0.3 ×10⁻⁶ cm/s | 
CC(=O)Nc1ccc(C(=O)NCCCN)cc1OC(C)c1ccccc1 (racemic) | 0.501 µM | 20 µM | 1.7 | 159 µg/mL (≈ 447 µM) | < 0.3 ×10⁻⁶ cm/s | 
CCNC(=O)c1ccc(NC(C)=O)c(OCc2ccccc2)c1F | 20 µM | > 50.1 µM | 2.5 | 119 µg/mL (≈ 360 µM) | 46 ×10⁻⁶ cm/s | 
CCNC(=O)c1cc(F)c(NC(C)=O)c(OCc2ccccc2)c1 | 1 µM | > 50.1 µM | 3.1 | 18 µg/mL (≈ 54.5 µM) | 11 ×10⁻⁶ cm/s | 
CC(=O)Nc1ccc(C(=O)N[C@H]2CC[C@H](O)CC2)cc1O[C@@H](C)c1ccccc1 | 0.158 µM | 39.8 µM | 3.1 | 170 µg/mL (≈ 429 µM) | 9.3 ×10⁻⁶ cm/s | 
COc1ccc(COc2cc(C(=O)NCCCN)ccc2NC(C)=O)cc1 | 2.51 µM | 39.8 µM | 1.3 | 114 µg/mL (≈ 307 µM) | < 0.3 ×10⁻⁶ cm/s | 
CC(=O)Nc1ccc(C(=O)NCCCN)cc1OCc1ccccn1 | 10 µM | > 50.1 µM | 0.3 | 80 µg/mL (≈ 234 µM) | < 0.3 ×10⁻⁶ cm/s | 
CC(=O)Nc1ccc(C(=O)NCCCN)cc1OCc1ccc(C(N)=O)cc1 | 10 µM | > 50.1 µM | 0 | 151 µg/mL (≈ 393 µM) | < 0.3 ×10⁻⁶ cm/s | 
CC(=O)Nc1ccccc1OCc1ccccc1 |  |  | 4.9 | 113 µg/mL (≈ 468 µM) | 78 ×10⁻⁶ cm/s | 
CC(=O)Nc1ccc(C(=O)NCCCN)cc1OCc1ccncc1 |  |  | 0.1 | 112 µg/mL (≈ 327 µM) | 0.3 ×10⁻⁶ cm/s | 
CC(=O)Nc1ccc(C(=O)NCCCN)cc1OCc1ccc(C)cc1 | 2 µM | 31.6 µM | 2 | 114 µg/mL (≈ 321 µM) | 0.65 ×10⁻⁶ cm/s | 
CC(=O)Nc1ccc(C(=O)NCCCN)cc1OCc1ccc(Cl)cc1 | 2 µM | 25.1 µM | 2.2 | 108 µg/mL (≈ 287 µM) | < 0.3 ×10⁻⁶ cm/s | 
Nc1c(O)cc(C(=O)O)cc1F |  |  |  |  |  | Activity [4]: Non-Toxic; Activity [5]: Non-Toxic; Activity [6]: Non-Toxic; Activity [7]: Non-Toxic; Activity [8]: Toxic; Activity [9]: Non-Toxic; Activity [10]: Non-Toxic; Activity [11]: Non-Toxic; Activity [12]: Non-Toxic; Activity [13]: Toxic
CC(=O)Nc1ccc(C(=O)NC2CCOCC2)cc1O[C@@H](C)c1ccccc1 | 0.251 µM | 31.6 µM | 3.7 | 215 µg/mL (≈ 562 µM) | 34 ×10⁻⁶ cm/s | Drug metabolism [14]: Metabolite_Detected; Drug metabolism [15]: Metabolite_Detected
C[C@H](Oc1cc(C(=O)N[C@H]2CC[C@H](O)CC2)ccc1N)c1ccccc1 |  |  |  |  |  | Activity [4]: Non-Toxic; Activity [5]: Non-Toxic; Activity [6]: Non-Toxic; Activity [7]: Non-Toxic; Activity [8]: Non-Toxic; Activity [9]: Non-Toxic; Activity [10]: Non-Toxic; Activity [11]: Non-Toxic; Activity [12]: Non-Toxic; Activity [13]: Non-Toxic
CC(=O)Nc1ccc(C(=O)NCCCN)cc1OCc1cccc(Cl)c1 |  |  | 2.1 | 96 µg/mL (≈ 255 µM) | 1.1 ×10⁻⁶ cm/s | 
CC(=O)Nc1ccc(C(=O)NC2CCOCC2)cc1O[C@H](C)c1ccccc1 | 12.6 µM | > 50.1 µM | 3.8 | 159 µg/mL (≈ 416 µM) | 30 ×10⁻⁶ cm/s | 
CC(=O)Nc1ccc(C(=O)NCCCN)cc1OCc1cccnc1 | 15.8 µM | > 50.1 µM | 0.2 | 130 µg/mL (≈ 380 µM) | < 0.3 ×10⁻⁶ cm/s | 
CC(=O)Nc1ccc(C(=O)NCCCN)cc1OCc1ccc(C(C)C)cc1 |  |  | 3.1 | 114 µg/mL (≈ 297 µM) | 0.77 ×10⁻⁶ cm/s | 
CC(=O)Nc1ccc(C(=O)NCCCN)cc1OCc1ccccc1Cl | 2.51 µM | 39.8 µM | 1.9 | 124 µg/mL (≈ 330 µM) | 1.5 ×10⁻⁶ cm/s | 

More lines, main results first:

IC50 [1] | IC50 [2] | CHI [3] | solubility kinetic (physchem) | Papp (in vitro) | Structure (SMILES) | further results
5.01 µM | > 50.1 µM | 2.3 | 162 µg/mL (≈ 493 µM) | 6.8 ×10⁻⁶ cm/s | CC(=O)Nc1ccc(C(=O)NCCO)cc1OCc1ccccc1 | 
2 µM | > 50.1 µM | 3.3 | 155 µg/mL (≈ 421 µM) | 19 ×10⁻⁶ cm/s | CC(=O)Nc1ccc(C(=O)NC2CCOCC2)cc1OCc1ccccc1 | 
1.26 µM | > 50.1 µM | 2.7 | 174 µg/mL (≈ 455 µM) | 7.9 ×10⁻⁶ cm/s | CC(=O)Nc1ccc(C(=O)N[C@H]2CC[C@H](O)CC2)cc1OCc1ccccc1 | 
1.58 µM | > 50.1 µM | 4.4 | 159 µg/mL (≈ 481 µM) | 67 ×10⁻⁶ cm/s | CCNC(=O)c1cc(OCc2ccccc2)c(NC(C)=O)cc1F | 
1.58 µM | 31.6 µM | 1.6 | 123 µg/mL (≈ 360 µM) | < 0.3 ×10⁻⁶ cm/s | CC(=O)Nc1ccc(C(=O)NCCCN)cc1OCc1ccccc1 | 
3.98 µM | > 50.1 µM | 2.4 | 109 µg/mL (≈ 318 µM) | 9.4 ×10⁻⁶ cm/s | CC(=O)Nc1ccc(C(=O)NCCCO)cc1OCc1ccccc1 | 
0.794 µM | > 50.1 µM | 1.7 | < 3 µg/mL | 17 ×10⁻⁶ cm/s | CC(=O)Nc1ccc(C(=O)NCC2CCNCC2)cc1OCc1ccccc1 | 
 |  | 2.2 | 125 µg/mL (≈ 330 µM) | 0.8 ×10⁻⁶ cm/s | CC(=O)Nc1ccc(C(=O)NCCc2cnc[nH]2)cc1OCc1ccccc1 | 
2.51 µM | > 50.1 µM | 3.5 | 174 µg/mL (≈ 455 µM) | 19 ×10⁻⁶ cm/s | CC(=O)Nc1ccc(C(=O)NCC2CCOCC2)cc1OCc1ccccc1 | 
1.58 µM | > 50.1 µM | 4 | 200 µg/mL (≈ 504 µM) | 10.4 ×10⁻⁶ cm/s | CC(=O)Nc1ccc(C(=O)NCCC2CCOCC2)cc1OCc1ccccc1 | 
6.31 µM | > 50.1 µM | 3.5 | 143 µg/mL (≈ 458 µM) | 32 ×10⁻⁶ cm/s | CCNC(=O)c1ccc(NC(C)=O)c(OCc2ccccc2)c1 | 
